Laboratory results reported in ChEMBL document CHEMBL3991601, “The target landscape of clinical kinase drugs” (Science, 2017).
Active and inactive are the calls of the source. For most assays here, no stated cut-off is given here; in the data, actives have a measured Kd and inactives only a lower limit.

Tests used:
Pyridoxal kinase = target: T1, Pyridoxal kinase (Homo sapiens, UniProt O00764)
T1 sequence (O00764 whole entry): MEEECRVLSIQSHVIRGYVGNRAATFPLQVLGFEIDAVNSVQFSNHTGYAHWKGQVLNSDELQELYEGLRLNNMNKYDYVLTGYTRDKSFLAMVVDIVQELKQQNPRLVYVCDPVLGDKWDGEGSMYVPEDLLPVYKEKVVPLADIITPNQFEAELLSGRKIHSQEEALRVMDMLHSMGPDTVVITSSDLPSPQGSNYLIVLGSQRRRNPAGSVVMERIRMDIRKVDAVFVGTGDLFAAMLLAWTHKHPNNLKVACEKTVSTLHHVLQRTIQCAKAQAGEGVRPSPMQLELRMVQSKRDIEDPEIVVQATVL

[1] = target: T2, General transcription and DNA repair factor IIH helicase subunit XPD (Homo sapiens, UniProt P18074); settings: read-out: Kd apparent; k-562, colo 205, sk-n-be(2) and mv-4-11
T2 sequence (P18074 whole entry): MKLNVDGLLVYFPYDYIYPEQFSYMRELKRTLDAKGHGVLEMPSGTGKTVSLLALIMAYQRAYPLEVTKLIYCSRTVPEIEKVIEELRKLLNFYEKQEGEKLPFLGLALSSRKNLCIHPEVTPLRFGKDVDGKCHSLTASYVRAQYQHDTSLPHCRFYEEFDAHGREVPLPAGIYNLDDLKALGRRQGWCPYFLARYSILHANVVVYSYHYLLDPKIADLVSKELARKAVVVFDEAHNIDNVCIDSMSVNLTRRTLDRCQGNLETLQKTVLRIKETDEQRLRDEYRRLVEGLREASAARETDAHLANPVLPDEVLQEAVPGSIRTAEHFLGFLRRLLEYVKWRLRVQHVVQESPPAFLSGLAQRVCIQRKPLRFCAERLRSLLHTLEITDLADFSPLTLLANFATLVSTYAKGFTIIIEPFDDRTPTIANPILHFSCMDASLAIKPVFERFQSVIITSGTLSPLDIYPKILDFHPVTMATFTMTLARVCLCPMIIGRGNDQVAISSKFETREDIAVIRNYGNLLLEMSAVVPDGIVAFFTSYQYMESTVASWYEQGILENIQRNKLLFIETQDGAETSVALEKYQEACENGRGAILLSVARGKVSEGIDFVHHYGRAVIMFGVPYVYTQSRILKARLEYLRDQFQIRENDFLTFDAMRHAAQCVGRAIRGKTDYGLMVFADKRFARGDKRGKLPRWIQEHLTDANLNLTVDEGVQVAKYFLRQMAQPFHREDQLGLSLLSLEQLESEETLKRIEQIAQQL

TGF-beta receptor type-1 = target: T3, TGF-beta receptor type-1 (Homo sapiens, UniProt P36897)
T3 sequence (P36897 whole entry): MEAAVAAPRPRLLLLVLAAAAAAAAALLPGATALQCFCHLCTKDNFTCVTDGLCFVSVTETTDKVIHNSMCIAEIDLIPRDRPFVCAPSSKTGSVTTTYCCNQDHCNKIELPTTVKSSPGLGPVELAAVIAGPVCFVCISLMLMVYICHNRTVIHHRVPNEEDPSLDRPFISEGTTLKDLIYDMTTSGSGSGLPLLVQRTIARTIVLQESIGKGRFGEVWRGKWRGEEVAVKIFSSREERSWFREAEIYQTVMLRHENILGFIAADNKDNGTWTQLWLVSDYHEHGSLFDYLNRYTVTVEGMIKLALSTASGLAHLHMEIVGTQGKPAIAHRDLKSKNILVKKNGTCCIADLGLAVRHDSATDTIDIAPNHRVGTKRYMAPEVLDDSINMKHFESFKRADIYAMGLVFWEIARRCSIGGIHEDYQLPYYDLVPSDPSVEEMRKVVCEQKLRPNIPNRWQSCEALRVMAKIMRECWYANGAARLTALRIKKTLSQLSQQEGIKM

LIM domain kinase 1 = LIM domain kinase 1 (Homo sapiens, UniProt P53667)
[2] = target: Macrophage-stimulating protein receptor (Homo sapiens, UniProt Q04912)
[3] = target: Platelet-derived growth factor receptor beta (Homo sapiens, UniProt P09619)
[4] = target: Casein kinase I isoform gamma-1 (Homo sapiens, UniProt Q9HCP0)
[5] = target: Serine/threonine-protein kinase MRCK beta (Homo sapiens, UniProt Q9Y5S2)
[6] = target: T4, EKC/KEOPS complex subunit TP53RK (Homo sapiens, UniProt Q96S44)
T4 sequence (Q96S44 whole entry): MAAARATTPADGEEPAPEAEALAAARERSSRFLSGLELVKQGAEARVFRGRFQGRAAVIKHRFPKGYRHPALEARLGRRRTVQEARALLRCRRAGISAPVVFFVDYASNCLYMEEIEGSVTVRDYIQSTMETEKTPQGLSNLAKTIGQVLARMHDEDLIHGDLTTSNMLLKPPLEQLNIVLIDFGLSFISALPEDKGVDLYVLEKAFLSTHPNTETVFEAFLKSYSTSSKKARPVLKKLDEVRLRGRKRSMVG

[7] = target: T5, Serine/threonine-protein kinase 3 (Homo sapiens, UniProt Q13188)
T5 sequence (Q13188 whole entry): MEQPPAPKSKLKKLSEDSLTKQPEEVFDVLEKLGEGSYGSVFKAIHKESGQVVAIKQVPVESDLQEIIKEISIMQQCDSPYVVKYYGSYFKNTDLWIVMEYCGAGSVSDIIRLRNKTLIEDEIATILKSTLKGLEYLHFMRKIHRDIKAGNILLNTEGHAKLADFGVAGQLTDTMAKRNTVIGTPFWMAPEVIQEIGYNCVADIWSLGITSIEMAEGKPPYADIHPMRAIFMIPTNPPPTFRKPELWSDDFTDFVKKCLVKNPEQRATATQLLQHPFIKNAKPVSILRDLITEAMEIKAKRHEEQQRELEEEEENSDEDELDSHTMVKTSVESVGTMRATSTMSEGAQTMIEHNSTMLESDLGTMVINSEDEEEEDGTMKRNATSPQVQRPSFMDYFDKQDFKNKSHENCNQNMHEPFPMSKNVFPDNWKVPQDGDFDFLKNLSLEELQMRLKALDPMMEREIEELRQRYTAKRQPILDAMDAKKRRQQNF

[8] = target: Glycogen synthase kinase-3 alpha (Homo sapiens, UniProt P49840)
Chain of Glycogen synthase kinase-3 alpha (P49840 whole entry): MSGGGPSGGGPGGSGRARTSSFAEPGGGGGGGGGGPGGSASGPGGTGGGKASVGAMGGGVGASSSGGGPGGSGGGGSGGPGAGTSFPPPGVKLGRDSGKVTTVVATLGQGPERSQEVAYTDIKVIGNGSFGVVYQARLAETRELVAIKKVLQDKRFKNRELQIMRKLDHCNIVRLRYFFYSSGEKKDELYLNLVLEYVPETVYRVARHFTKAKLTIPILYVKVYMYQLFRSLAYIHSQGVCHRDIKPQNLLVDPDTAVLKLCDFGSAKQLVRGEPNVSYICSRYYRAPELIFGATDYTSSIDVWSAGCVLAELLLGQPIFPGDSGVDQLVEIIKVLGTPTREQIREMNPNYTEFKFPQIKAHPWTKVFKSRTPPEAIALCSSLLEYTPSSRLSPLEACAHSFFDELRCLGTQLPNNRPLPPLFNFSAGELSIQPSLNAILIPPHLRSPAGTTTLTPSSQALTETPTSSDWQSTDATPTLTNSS

Chain of Serine/threonine-protein kinase MRCK beta (Q9Y5S2 whole entry): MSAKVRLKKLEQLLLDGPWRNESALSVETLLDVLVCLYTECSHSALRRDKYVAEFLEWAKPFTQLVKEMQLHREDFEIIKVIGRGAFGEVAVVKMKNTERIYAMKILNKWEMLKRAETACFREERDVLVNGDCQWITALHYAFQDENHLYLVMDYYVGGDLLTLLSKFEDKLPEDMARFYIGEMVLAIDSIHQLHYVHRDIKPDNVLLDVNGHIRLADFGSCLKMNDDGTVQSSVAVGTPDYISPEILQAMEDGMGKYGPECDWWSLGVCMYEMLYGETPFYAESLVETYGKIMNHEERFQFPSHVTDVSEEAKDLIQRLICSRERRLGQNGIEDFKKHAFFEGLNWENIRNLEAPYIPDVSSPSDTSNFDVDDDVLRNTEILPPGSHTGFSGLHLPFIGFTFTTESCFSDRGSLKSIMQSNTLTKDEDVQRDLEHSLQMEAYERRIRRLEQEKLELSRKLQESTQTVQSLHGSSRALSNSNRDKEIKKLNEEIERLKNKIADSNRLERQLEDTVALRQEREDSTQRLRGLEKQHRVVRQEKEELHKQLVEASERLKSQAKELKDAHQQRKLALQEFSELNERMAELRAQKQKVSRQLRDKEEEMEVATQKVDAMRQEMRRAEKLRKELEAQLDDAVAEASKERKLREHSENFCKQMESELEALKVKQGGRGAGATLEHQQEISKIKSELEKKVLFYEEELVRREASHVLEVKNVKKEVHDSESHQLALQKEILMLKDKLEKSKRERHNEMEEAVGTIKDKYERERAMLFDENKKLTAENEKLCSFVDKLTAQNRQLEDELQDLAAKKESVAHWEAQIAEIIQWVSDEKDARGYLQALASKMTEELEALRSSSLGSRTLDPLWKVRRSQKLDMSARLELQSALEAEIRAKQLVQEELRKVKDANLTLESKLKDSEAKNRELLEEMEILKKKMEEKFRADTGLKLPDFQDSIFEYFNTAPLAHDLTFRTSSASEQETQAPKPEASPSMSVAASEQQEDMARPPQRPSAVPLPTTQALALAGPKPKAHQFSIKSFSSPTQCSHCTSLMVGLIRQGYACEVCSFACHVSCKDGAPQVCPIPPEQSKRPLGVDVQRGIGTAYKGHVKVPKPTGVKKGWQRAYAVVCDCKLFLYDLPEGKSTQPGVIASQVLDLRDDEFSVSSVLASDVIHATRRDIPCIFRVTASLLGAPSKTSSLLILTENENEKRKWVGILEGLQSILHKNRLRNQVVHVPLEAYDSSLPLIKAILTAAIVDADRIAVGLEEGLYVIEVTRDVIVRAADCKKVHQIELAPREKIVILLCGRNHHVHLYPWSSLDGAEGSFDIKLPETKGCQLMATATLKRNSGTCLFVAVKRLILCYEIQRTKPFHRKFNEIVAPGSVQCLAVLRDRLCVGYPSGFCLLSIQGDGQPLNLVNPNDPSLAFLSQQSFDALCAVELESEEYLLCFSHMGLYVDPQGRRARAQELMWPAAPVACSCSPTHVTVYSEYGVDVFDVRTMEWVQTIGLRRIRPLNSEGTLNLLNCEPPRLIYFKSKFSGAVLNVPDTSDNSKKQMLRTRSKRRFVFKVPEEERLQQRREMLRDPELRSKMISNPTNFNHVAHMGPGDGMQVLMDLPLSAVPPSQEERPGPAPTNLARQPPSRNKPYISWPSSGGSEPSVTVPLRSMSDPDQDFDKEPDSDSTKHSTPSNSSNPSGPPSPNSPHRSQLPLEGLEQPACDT
Chain of Macrophage-stimulating protein receptor (Q04912 25-304 limits assumed): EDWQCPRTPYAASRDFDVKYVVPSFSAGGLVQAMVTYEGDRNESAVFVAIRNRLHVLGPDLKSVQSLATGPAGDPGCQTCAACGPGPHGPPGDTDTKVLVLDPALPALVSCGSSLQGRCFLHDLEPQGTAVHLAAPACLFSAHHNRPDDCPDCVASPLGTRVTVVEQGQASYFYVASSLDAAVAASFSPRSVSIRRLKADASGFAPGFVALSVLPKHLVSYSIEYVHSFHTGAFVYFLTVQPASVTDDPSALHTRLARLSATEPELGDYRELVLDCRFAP
Chain of Macrophage-stimulating protein receptor (Q04912 310-1400 limits assumed): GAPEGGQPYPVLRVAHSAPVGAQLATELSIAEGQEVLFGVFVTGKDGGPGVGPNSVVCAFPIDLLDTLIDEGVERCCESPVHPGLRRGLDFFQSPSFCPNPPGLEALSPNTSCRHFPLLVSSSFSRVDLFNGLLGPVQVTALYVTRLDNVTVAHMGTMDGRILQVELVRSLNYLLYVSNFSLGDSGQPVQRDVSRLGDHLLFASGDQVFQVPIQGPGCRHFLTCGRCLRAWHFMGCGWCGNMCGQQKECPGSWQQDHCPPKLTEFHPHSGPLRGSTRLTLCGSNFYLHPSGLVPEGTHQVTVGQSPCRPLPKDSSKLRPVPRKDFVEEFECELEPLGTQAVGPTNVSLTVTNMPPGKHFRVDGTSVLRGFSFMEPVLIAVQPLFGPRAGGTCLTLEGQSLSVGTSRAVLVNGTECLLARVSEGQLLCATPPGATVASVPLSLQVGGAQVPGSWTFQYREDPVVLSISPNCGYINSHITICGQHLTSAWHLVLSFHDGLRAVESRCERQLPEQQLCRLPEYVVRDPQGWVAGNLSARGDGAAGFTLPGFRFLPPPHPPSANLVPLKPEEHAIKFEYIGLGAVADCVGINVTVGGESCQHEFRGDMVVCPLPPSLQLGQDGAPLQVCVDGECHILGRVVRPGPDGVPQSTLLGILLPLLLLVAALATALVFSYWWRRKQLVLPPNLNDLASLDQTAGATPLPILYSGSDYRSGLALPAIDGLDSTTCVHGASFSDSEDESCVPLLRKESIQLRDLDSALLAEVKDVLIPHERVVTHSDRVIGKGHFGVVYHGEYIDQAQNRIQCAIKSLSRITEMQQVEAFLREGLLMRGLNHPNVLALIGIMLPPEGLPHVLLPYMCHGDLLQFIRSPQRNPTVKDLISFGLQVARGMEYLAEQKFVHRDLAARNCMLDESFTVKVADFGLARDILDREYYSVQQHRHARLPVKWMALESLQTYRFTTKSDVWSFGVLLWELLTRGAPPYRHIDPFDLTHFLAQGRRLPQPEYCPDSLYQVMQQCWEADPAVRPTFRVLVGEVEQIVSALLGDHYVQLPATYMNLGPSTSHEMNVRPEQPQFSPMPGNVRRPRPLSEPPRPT
Chain of Casein kinase I isoform gamma-1 (Q9HCP0 whole entry, canonical isoform): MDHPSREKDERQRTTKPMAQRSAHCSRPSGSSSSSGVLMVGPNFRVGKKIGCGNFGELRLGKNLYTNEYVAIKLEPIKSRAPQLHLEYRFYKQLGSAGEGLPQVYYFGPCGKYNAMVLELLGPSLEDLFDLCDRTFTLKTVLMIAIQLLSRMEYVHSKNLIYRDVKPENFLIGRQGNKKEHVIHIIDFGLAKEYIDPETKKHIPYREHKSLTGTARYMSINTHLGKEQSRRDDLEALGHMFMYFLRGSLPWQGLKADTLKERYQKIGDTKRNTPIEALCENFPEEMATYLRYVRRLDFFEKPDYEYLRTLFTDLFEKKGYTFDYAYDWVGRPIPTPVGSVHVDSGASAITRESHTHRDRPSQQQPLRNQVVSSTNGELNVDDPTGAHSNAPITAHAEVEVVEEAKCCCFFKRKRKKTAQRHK
Chain of LIM domain kinase 1 (P53667 whole entry, the tested form may be a part): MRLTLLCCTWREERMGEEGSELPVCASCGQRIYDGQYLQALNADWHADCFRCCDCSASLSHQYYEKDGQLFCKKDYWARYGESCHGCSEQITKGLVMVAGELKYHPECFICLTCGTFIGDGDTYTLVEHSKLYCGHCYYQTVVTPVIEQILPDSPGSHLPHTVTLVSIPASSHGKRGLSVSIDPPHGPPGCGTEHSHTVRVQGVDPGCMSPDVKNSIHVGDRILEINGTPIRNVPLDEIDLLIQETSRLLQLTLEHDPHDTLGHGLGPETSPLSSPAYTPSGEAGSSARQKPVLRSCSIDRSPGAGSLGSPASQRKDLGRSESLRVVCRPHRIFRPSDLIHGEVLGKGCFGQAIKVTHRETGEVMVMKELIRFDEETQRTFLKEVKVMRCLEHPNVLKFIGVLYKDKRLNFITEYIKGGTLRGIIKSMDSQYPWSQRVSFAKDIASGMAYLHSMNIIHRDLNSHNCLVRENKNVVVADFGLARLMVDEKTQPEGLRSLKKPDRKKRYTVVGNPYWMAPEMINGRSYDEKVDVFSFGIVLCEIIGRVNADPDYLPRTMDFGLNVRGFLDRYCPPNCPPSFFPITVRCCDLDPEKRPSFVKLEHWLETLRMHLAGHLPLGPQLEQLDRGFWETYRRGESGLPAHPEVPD

SMILES | Kd (Pyridoxal kinase) | Kd [1] | Kd (TGF-beta receptor type-1) | Kd (LIM domain kinase 1) | Kd [2] | Kd [3] | Kd [4] | Kd [5] | Kd [6] | Kd [7] | Kd [8]
Cn1ncc(Cl)c1-c1cc(C(=O)N[C@H](CN)Cc2cccc(F)c2)sc1Cl [AFURESERTIB] | > 30 µM (inactive) | > 30 µM (inactive) | > 30 µM (inactive) | > 30 µM (inactive) | > 30 µM (inactive) | > 30 µM (inactive) | > 30 µM (inactive) | > 30 µM (inactive) | > 30 µM (inactive) | > 30 µM (inactive) | > 30 µM (inactive)
COC(=O)N[C@@H](C)CNc1nccc(-c2cn(C(C)C)nc2-c2cc(Cl)cc(NS(C)(=O)=O)c2F)n1 [ENCORAFENIB] | > 30 µM (inactive) | > 30 µM (inactive) | > 30 µM (inactive) | 0.026 µM (active) | > 30 µM (inactive) | > 30 µM (inactive) | > 30 µM (inactive) | > 30 µM (inactive) | > 30 µM (inactive) | > 30 µM (inactive) | 5.26 µM (active)
Cc1cc(-c2cc(O)ccc2Cl)cc2nnc(Nc3ccc(OCCN4CCCC4)cc3)nc12 | > 30 µM (inactive) | > 30 µM (inactive) | 0.002 µM (active) | > 30 µM (inactive) | > 30 µM (inactive) | > 30 µM (inactive) | > 30 µM (inactive) | > 30 µM (inactive) | > 30 µM (inactive) | > 30 µM (inactive) | > 30 µM (inactive)
CCCS(=O)(=O)Nc1ccc(F)c(C(=O)c2c[nH]c3ncc(-c4ccc(Cl)cc4)cc23)c1F [VEMURAFENIB] | > 30 µM (inactive) | > 30 µM (inactive) | > 30 µM (inactive) | > 30 µM (inactive) | > 30 µM (inactive) | > 30 µM (inactive) | > 30 µM (inactive) | > 30 µM (inactive) | > 30 µM (inactive) | > 30 µM (inactive) | > 30 µM (inactive)
CC[C@H](Nc1ncnc2[nH]cnc12)c1nc2cccc(F)c2c(=O)n1-c1ccccc1 [IDELALISIB] | > 30 µM (inactive) |  | > 30 µM (inactive) | > 30 µM (inactive) | > 30 µM (inactive) | > 30 µM (inactive) | > 30 µM (inactive) | > 30 µM (inactive) | > 30 µM (inactive) | > 30 µM (inactive) | > 30 µM (inactive)
Cc1cn(-c2cc(NC(=O)c3ccc(C)c(Nc4nccc(-c5cccnc5)n4)c3)cc(C(F)(F)F)c2)cn1 [NILOTINIB] | > 30 µM (inactive) | > 30 µM (inactive) |  |  |  |  |  |  | > 30 µM (inactive) |  | 
CCc1cnn2c(NCc3ccc[n+]([O-])c3)cc(N3CCCC[C@H]3CCO)nc12 [DINACICLIB] | > 30 µM (inactive) |  | > 30 µM (inactive) |  |  |  | > 30 µM (inactive) | > 30 µM (inactive) | > 30 µM (inactive) | > 30 µM (inactive) | 1.47 µM (active)
O=C(Nc1cccc(Cl)c1)Nc1ncc(CCNc2ncnc3ccsc23)s1 [SNS-314] | > 30 µM (inactive) | > 30 µM (inactive) | > 30 µM (inactive) |  |  |  |  | > 30 µM (inactive) | > 30 µM (inactive) |  | 
CN1CCN(c2ccc3nc(-c4c(N)c5c(F)cccc5[nH]c4=O)[nH]c3c2)CC1 [DOVITINIB] | > 30 µM (inactive) | > 30 µM (inactive) |  |  |  |  |  |  | > 30 µM (inactive) |  | 
CNC(=O)c1cc(Oc2ccc(NC(=O)Nc3ccc(Cl)c(C(F)(F)F)c3)c(F)c2)ccn1 [REGORAFENIB] | > 30 µM (inactive) |  | > 30 µM (inactive) | 0.616 µM (active) | > 30 µM (inactive) |  | > 30 µM (inactive) | > 30 µM (inactive) | > 30 µM (inactive) | > 30 µM (inactive) | > 30 µM (inactive)
Nc1nc(N)c2nc(-c3cccc(O)c3)c(-c3cccc(O)c3)nc2n1 [TG100-115] | 5.25 µM (active) | > 30 µM (inactive) |  |  |  |  |  |  | > 30 µM (inactive) |  | 
CC[C@@H]1C(=O)N(C)c2cnc(Nc3ccc(C(=O)N[C@H]4CC[C@H](N5CCN(CC6CC6)CC5)CC4)cc3OC)nc2N1C(C)C [VOLASERTIB] | 0.286 µM (active) |  | > 30 µM (inactive) | > 30 µM (inactive) | > 30 µM (inactive) | > 30 µM (inactive) | > 30 µM (inactive) | > 30 µM (inactive) | > 30 µM (inactive) | > 30 µM (inactive) | > 30 µM (inactive)

Continued, values first:

Kd (Pyridoxal kinase) | Kd [1] | Kd (TGF-beta receptor type-1) | Kd (LIM domain kinase 1) | Kd [2] | Kd [3] | Kd [4] | Kd [5] | Kd [6] | Kd [7] | Kd [8] | SMILES
> 30 µM (inactive) | > 30 µM (inactive) | > 30 µM (inactive) | 0.632 µM (active) | > 30 µM (inactive) | 9.38 µM (active) | > 30 µM (inactive) | > 30 µM (inactive) | > 30 µM (inactive) | > 30 µM (inactive) | > 30 µM (inactive) | CCN1CCN(Cc2ccc(-c3cc4c(N[C@H](C)c5ccccc5)ncnc4[nH]3)cc2)CC1 [AEE-788]
> 30 µM (inactive) | > 30 µM (inactive) | > 30 µM (inactive) |  |  |  | > 30 µM (inactive) | > 30 µM (inactive) | > 30 µM (inactive) | > 30 µM (inactive) |  | OCCn1cc(-c2cnc3nnn(Cc4ccc5ncccc5c4)c3n2)cn1 [PF-04217903]
> 30 µM (inactive) | > 30 µM (inactive) |  | 0.984 µM (active) | 0.575 µM (active) |  |  | > 30 µM (inactive) | > 30 µM (inactive) |  |  | Cc1nc(N)sc1-c1ccnc(Nc2ccc(N3CCOCC3)cc2)n1 [CYC-116]
> 30 µM (inactive) | > 30 µM (inactive) | > 30 µM (inactive) |  |  |  |  | > 30 µM (inactive) | > 30 µM (inactive) |  |  | Cc1cc(Nc2cc(N3CCN(C)CC3)nc(/C=C/c3ccccc3)n2)n[nH]1 [ENMD-2076]
> 30 µM (inactive) | > 30 µM (inactive) | > 30 µM (inactive) |  | > 30 µM (inactive) | 1.12 µM (active) | > 30 µM (inactive) | > 30 µM (inactive) | > 30 µM (inactive) | > 30 µM (inactive) | > 30 µM (inactive) | O=C(Nc1ccc(-c2ccnc(Nc3ccc(N4CCOCC4)cc3)n2)cc1)C1CCCN1 (stereo unspecified) [XL-019]
> 30 µM (inactive) | > 30 µM (inactive) |  |  |  |  |  |  | > 30 µM (inactive) |  |  | CCn1c(-c2nonc2N)nc2c(C#CC(C)(C)O)ncc(OC[C@H]3CCCNC3)c21 [GSK-690693]
